Assay results taken from PMC8006935, “Study of Combinatorial Drug Synergy of Novel Acridone Derivatives With Temozolomide Using in-silico and in-vitro Methods in the Treatment of Drug-Resistant Glioma” (Frontiers in Oncology, 2021).
Like-named read-outs stand apart in the source and are kept apart here.

Legend:
[1] = pKa by UV-Vis spectrophotometer; assay type: physicochemical
Procedure: Characterization of acridone derivatives AC2, AC7, and AC26 were carried out by using all the chemicals of analytical grade. Hydrochloric acid and sodium hydroxide were procured from Sisco Research Lab Pvt. Ltd (Mumbai, India). Potassium dihydrogen orthophosphate, methanol and ortho-phosphoric acid (85% pure) was received from Loba Chemie Pvt. Ltd. (Mumbai, India). Sodium chloride was received from SD Fine-Chem Limited (Mumbai, India). Milli-pore water was used throughout the study. Chemical information like the molecular weight of compounds was determined by obtaining ESI-MS spectroscopy using methanol as solvent. pH calculated by using pH analyzer (Lab India) and PKa determined by using UV-Vis spectrophotometer (Shimadzu, Japan). Melting point was calculated by Digital Melting point apparatus (Veego India). Lipophilicity was determined by using software like Chem Draw 15 and ALGOPS 2.1 ([16]). In order to determine the Blood Brain Barrier (BBB) permeability of the compounds, we have used Online BBB Predictor (https://www.cbligand.org/BBB/predictor.php) using SVM Machine Learning algorithm and PubChem as the fingerprint ([17]).

[2] = Sulforhodamine B assay, Vero control cells; assay type: cell-based; conditions: African green monkey, Vero cells (normal kidney epithelial cells), SRB, read-out: Vero cell Line CC50
Procedure: (§1) In order to test the growth inhibition potential of the TMZ and Acridone derivatives on Glioma, the U-87 (Uppsala 87) Glioma cell lines and T-98 (Temozolomide resistant) Glioma cell lines were treated with Temozolomide (TMZ) and Acridone derivatives AC2, AC7, and AC26. The African Green Monkey Kidney Vero cell lines were used as control for the study. The Vero cell lines were obtained from the National Center for Cell Sciences (NCCS), Pune, while the U-87 and T-98 cell lines were carried in the lab of Dr. GJ Peters, Cancer Center Amsterdam (CCA), VU University Medical Center, Amsterdam, Netherlands. The Mycoplasma testing was done by using the Universal Mycoplasma Detection Kit (ATCC® 30-1012K™) every 6 months. The Vero cell lines have been used as control as they are normal kidney epithelial cells and are non-cancerous in nature. The Vero cell lines have been routinely used for testing cytotoxicity of small molecules by various researchers ([22], [23]). Also, in our previous study, Vero cell lines have been used for testing safety and efficacy of Acridone derivatives for Lung, Cervical, and Breast Cancer studies ([13]).
(§2) Cell viability was found using the Sulforhodamine B (SRB) assay to measure the cellular protein content which provides better sensitivity in comparison to MTT assay ([24]). Moreover, as this method is dependent on the property of the SRB dye, it acts by binding to proteins under slightly acidic conditions and can be exposed to basic conditions for its extraction. The resulting amount of bound dye is then utilized as a proxy for cell mass ([25]). This cell mass can then be extrapolated to measure cell growth.
Glioma cells were cultured in Gibco (RPMI 1640) complemented with 10% fetal calf serum (Gibco). The cultures were then treated with trypsin-EDTA in order to detach/separate the cells from their culture flasks. The quickly proliferating cells were harvested, counted and plated at suitable concentrations in 96-well microplates. These microplates were subsequently incubated for 24 h. After incubation, drug compounds were dissolved in the culture media and placed in 96 well plates in triplicates, which were again incubated at 37°C under 5% CO2 for 72 h. 72 h later, the plates were removed and the cells were treated with cold Trichloroacetic acid (TCA) to fix the cultures and. […] Thereafter, absorbance of the solution was measured at 540 nm utilizing a microplate reader. Absorbance readings (triplicate values) recorded were used to calculate percentage growth inhibition due to the effect of drugs using the following equations.
% Cell growth = Absorbance sample/Absorbance of control or untreated × 100 […]
The IC50 was calculated based on the log graph sheet which was developed in-house at the CCA, VU University Medical Center. […]

[3] = test system: U-87 (Uppsala 87) Glioma cell lines; experiment: Sulforhodamine B assay, U-87 drug sensitive Glioma cells; assay type: cell-based; conditions: for U-87/WT SI: SI = CC50 of Vero cell line /IC50 of Cancer cell line after 72 h; for IC50: 72 h, SRB, Mean ± Standard Deviations in Table 4, read-out: U-87/WT IC50
Procedure: as §1, §2
Glioma cells were cultured in Gibco (RPMI 1640) complemented with 10% fetal calf serum (Gibco). The cultures were then treated with trypsin-EDTA in order to detach/separate the cells from their culture flasks. The quickly proliferating cells were harvested, counted and plated at suitable concentrations in 96-well microplates. These microplates were subsequently incubated for 24 h. After incubation, drug compounds were dissolved in the culture media and placed in 96 well plates in triplicates, which were again incubated at 37°C under 5% CO2 for 72 h. 72 h later, the plates were removed and the cells were treated with cold Trichloroacetic acid (TCA) to fix the cultures and. 0.4% of SRB dissolved in 1% acetic acid was then added to the culture in order to stain the cells. Next, the bound stain was dissolved in 150 μl of 10 mM unbuffered Tris base left on a gyrator shaker. Thereafter, absorbance of the solution was measured at 540 nm utilizing a microplate reader. Absorbance readings (triplicate values) recorded were used to calculate percentage growth inhibition due to the effect of drugs using the following equations.
% Cell growth = Absorbance sample/Absorbance of control or untreated × 100
% Growth inhibition = 100 - % cell growth
The IC50 was calculated based on the log graph sheet which was developed in-house at the CCA, VU University Medical Center.
Selectivity Index (SI) is a ratio that measures the window between cytotoxicity and anticancer activity of the drugs ([26]). […] Here, IC50 is the inhibition concentration for inhibiting 50% of cancer cells and CC50 is cytotoxic concentration causing death of 50% viable cells in the host.

[4] = Acute Oral Toxicity - Fixed Dose procedure; assay type: in vivo; conditions: for clinical sign of toxicity: oral, single dose, 14 days observation, female albino Wistar rats
Procedure: Animal study was conducted for acridone derivatives AC2, AC7, and AC26 alone and in combination with Temozolomide for Acute Oral Toxicity - Fixed Dose procedure. The Institutional Animal Ethics Committee bearing CPCSEA/IAEC/P-52/2016 was approved for undertaking the study. Acute oral toxicity was conducted on female albino Wistar rats for 8–12 weeks and were maintained at 25 ± 2 °C in a conditioned room with 50–60% of humidity and free access to food and water was given. Rats were kept for fasting overnight (12 h) before dosing and weights were recorded periodically. Rats in two groups were given acridone derivatives alone at a dose of […], rats in two groups were given a combination of Temozolomide : acridone derivatives at dose of 10:1 mg/kg and 15:1.5 mg/kg body weight and one group was kept as control. Dose of Temozolomide was taken as per previously published article ([50]). Compounds alone and combination were suspended in 2.0% of Tween 80 in normal saline and control group was taken for vehicle only. After administering the compound, food was not provided for 3 h. All the rats were monitored periodically for 1 h upto 12 h on the 1st day and thereafter twice in a day for mortality, behavioral changes, signs and symptoms of toxicity for 14 days. Individual weights of rats were taken for all the 14 days and study was conducted twice for each dose.

[5] = set-up: method as in PMID 21565270; conditions: cited from earlier work

SMILES	pKa [1]	CC50 at 72 h [2]	U-87/WT SI [3]	IC50 ([3]; U87WT)	Body weight (g) Day 0 ([4]; 300 mg/kg oral)	Body weight (g) Day 1 ([4]; 300 mg/kg oral)	Body weight (g) Day 2 ([4]; 300 mg/kg oral)	Body weight (g) Day 3 ([4]; 300 mg/kg oral)	Body weight (g) Day 4 ([4]; 300 mg/kg oral)	Body weight (g) Day 5 ([4]; 300 mg/kg oral)	Body weight (g) Day 6 ([4]; 300 mg/kg oral)	Body weight (g) Day 7 ([4]; 300 mg/kg oral)	Body weight (g) Day 8 ([4]; 300 mg/kg oral)	Body weight (g) Day 9 ([4]; 300 mg/kg oral)	Body weight (g) Day 10 ([4]; 300 mg/kg oral)	Body weight (g) Day 11 ([4]; 300 mg/kg oral)	Body weight (g) Day 12 ([4]; 300 mg/kg oral)	Body weight (g) Day 13 ([4]; 300 mg/kg oral)	Body weight (g) Day 14 ([4]; 300 mg/kg oral)	Body weight (g) Day 0 ([4]; 2000 mg/kg oral)	other results
O=C(NN=Cc1ccccc1Cl)c1cccc2c(=O)c3ccccc3[nH]c12 [AC7, N'-(2-chlorobenzylidene)-9-oxo-9,10-dihydroacridine-4-carbohydrazide]	9.23	48.2 µM	8.49	5.67 ± 0.58 µM	175 ± 10 g	176 ± 14 g	178 ± 10 g	181 ± 8 g	183 ± 12 g	185 ± 15 g	188 ± 11 g	192 ± 12 g	194 ± 12 g	196 ± 14 g	195 ± 11 g	197 ± 16 g	199 ± 12 g	202 ± 10 g	205 ± 18 g	180 ± 8 g	Body weight (g) Day 1 ([4]; 2000 mg/kg oral): 181 ± 12 g; Body weight (g) Day 2 ([4]; 2000 mg/kg oral): 183 ± 8 g; Body weight (g) Day 3 ([4]; 2000 mg/kg oral): 185 ± 14 g; Body weight (g) Day 4 ([4]; 2000 mg/kg oral): 187 ± 6 g; Body weight (g) Day 5 ([4]; 2000 mg/kg oral): 189 ± 11 g; Body weight (g) Day 6 ([4]; 2000 mg/kg oral): 192 ± 16 g; Body weight (g) Day 7 ([4]; 2000 mg/kg oral): 193 ± 15 g; Body weight (g) Day 8 ([4]; 2000 mg/kg oral): 197 ± 10 g; Body weight (g) Day 9 ([4]; 2000 mg/kg oral): 198 ± 18 g; Body weight (g) Day 10 ([4]; 2000 mg/kg oral): 201 ± 8 g; Body weight (g) Day 11 ([4]; 2000 mg/kg oral): 204 ± 10 g; Body weight (g) Day 12 ([4]; 2000 mg/kg oral): 206 ± 14 g; Body weight (g) Day 13 ([4]; 2000 mg/kg oral): 208 ± 12 g; Body weight (g) Day 14 ([4]; 2000 mg/kg oral): 211 ± 16 g; clinical sign of toxicity [4]: No clinical sign of toxicity was observed; cytotoxicity in comparison to the other acridone derivatives [5]: 100 times
CC(=NNC(=O)c1cccc2c(=O)c3ccccc3[nH]c12)c1ccccc1O [AC26, N'(1-(2-hydroxyphenyl)ethylidene)-9-oxo-9,10-dihydroacridine-4-carbohydrazide]	6.52	66.1 µM	73.42	0.9 ± 0.1 µM	178 ± 10 g	182 ± 8 g	183 ± 12 g	184 ± 16 g	187 ± 10 g	189 ± 16 g	191 ± 12 g	194 ± 18 g	196 ± 12 g	199 ± 10 g	201 ± 14 g	202 ± 16 g	205 ± 12 g	207 ± 8 g	209 ± 18 g	181 ± 11 g	IC50 ([3]; listed as Acridone 26): 1 µM; Body weight (g) Day 1 ([4]; 2000 mg/kg oral): 182 ± 15 g; Body weight (g) Day 2 ([4]; 2000 mg/kg oral): 185 ± 10 g; Body weight (g) Day 3 ([4]; 2000 mg/kg oral): 188 ± 11 g; Body weight (g) Day 4 ([4]; 2000 mg/kg oral): 189 ± 18 g; Body weight (g) Day 5 ([4]; 2000 mg/kg oral): 193 ± 22 g; Body weight (g) Day 6 ([4]; 2000 mg/kg oral): 195 ± 16 g; Body weight (g) Day 7 ([4]; 2000 mg/kg oral): 199 ± 19 g; Body weight (g) Day 8 ([4]; 2000 mg/kg oral): 200 ± 14 g; Body weight (g) Day 9 ([4]; 2000 mg/kg oral): 202 ± 10 g; Body weight (g) Day 10 ([4]; 2000 mg/kg oral): 206 ± 8 g; Body weight (g) Day 11 ([4]; 2000 mg/kg oral): 207 ± 9 g; Body weight (g) Day 12 ([4]; 2000 mg/kg oral): 209 ± 4 g; Body weight (g) Day 13 ([4]; 2000 mg/kg oral): 211 ± 12 g; Body weight (g) Day 14 ([4]; 2000 mg/kg oral): 215 ± 20 g; clinical sign of toxicity [4]: No clinical sign of toxicity was observed; cytotoxicity in comparison to the other acridone derivatives [5]: 100 times
